Results on one molecule are retold here after paper PMC9127739, “Hololectin Interdomain Linker Determines Asparaginyl Endopeptidase-Mediated Maturation of Antifungal Hevein-Like Peptides in Oats” (Frontiers in Plant Science, 2022).

Where a SMILES comes first, the peptide text is derived from it. Bridges are numbered along the chain shown (N, C = ends). A value given as a limit tells only on which side of the number the result lay.

The subject of data set [1] is Curvularia lunata (CICC 40301). The data set is described as follows: Anti-fungal microbroth dilution assay. The following applies: 1 × 10^5 cells/mL spores in half-strength potato dextrose broth, 25°C, 24 h, crystal violet, absorbance 570 nm, read-out: IC50 against C. lunata. The data set is classed as cell-based. On the procedure:
(§1) Four phyto-pathogenic fungal strains from the China Center of Industrial Culture Collection (Beijing, China) were used to examine the anti-fungal activity of avenatide aV1: Alternaria alternata (CICC 2465), Curvularia lunata (CICC 40301), Fusarium oxysporum (CICC 2532), and Rhizoctonia solani (CICC 40259). Fungal strains were grown on potato dextrose agar plates at 25°C.
(§2) The half maximal inhibitory concentration levels (IC50) of avenatide aV1 were determined using a microbroth dilution assay ([Loo et al., 2021b]). Fungal spores were harvested from a 4-day old, actively growing fungal plate and suspended in half-strength potato dextrose broth. In the 96-well microplate, 1 × 10^5 cells/mL of spore suspension was mixed with peptides at varying concentrations and incubated at 25°C for 24 h. The cells were then fixed with 100% methanol for 15 min. Staining was done for 45 min with crystal violet dye. MilliQ water was used to remove excess dye. Elution was performed using 1:1 (v/v) ethanol/0.1 N HCl. Absorbance was measured at 570 nm.

Data set [2] relates to Fusarium oxysporum (CICC 2532). The data set is described as follows: Anti-fungal microbroth dilution assay. It counts as cell-based. To be noted: 1 × 10^5 cells/mL spores in half-strength potato dextrose broth, 25°C, 24 h, crystal violet, absorbance 570 nm, read-out: IC50 against F. oxysporum. On the procedure:
as §1, §2

In another data set the test system is trypsin. Kind of data set: Peptide stability assay, trypsin (endopeptidase). The data set is classed as in vitro ADME. The following applies: recommended buffer, RP-HPLC, n = 3. On the procedure: (§3) Purified avenatides aV1 and S-alkylated aV1 were incubated under the stated conditions and recommended buffer solution. At each time interval, aliquots of samples were taken and RP-UPLC was performed in triplicate.

The next data set relates to carboxypeptidase A. Kind of data set: Exoproteolytic enzyme stability assay, carboxypeptidase A. To be noted: carboxypeptidase A (isolated exopeptidase); 200 μM peptide, 100 nM carboxypeptidase A, 50 mM Tris-HCl, 100 mM sodium chloride, 37°C, 4 h (time-points 0 and 6 h); quenched with 1 M HCl; RP-UPLC; n = 3; read-out: Peptide retained after carboxypeptidase A treatment. It counts as in vitro ADME. On the procedure: as §3
Purified avenatide aV1 (200 μM) were added to 50 mM Tris-HCl, 100 mM sodium chloride with 100 nM carboxypeptidase A or 20 mM tricine and 0.05% bovine serum albumin (pH 8.0) with 20 U/mL aminopeptidase I. The mixture was incubated in a 37°C water bath for 4 h. At each time-point ([…]), 20 μL of the treated sample was aliquoted and quenched with 5 μL 1 M hydrochloric acid. RP-UPLC was performed to determine the amounts of avenatide aV1 present before and after treatment.

Regarding `CC(C)C[C@@H]1NC(=O)CNC(=O)[C@@H]2CSSC[C@@H]3NC(=O)[C@@H]4CCCN4C(=O)[C@H](CO)NC(=O)[C@H](CO)NC(=O)[C@H](CO)NC(=O)[C@H](CO)NC(=O)[C@@H](NC(=O)[C@H](C)N)CSSC[C@H](NC(=O)[C@H](CSSC[C@@H](C(=O)NCC(=O)N[C@@H](CO)C(=O)NCC(=O)N[C@H]4CSSC[C@@H](C(=O)N[C@H](C(=O)NCC(=O)N[C@@H](C)C(=O)O)[C@@H](C)O)NC(=O)[C@@H]5CCCN5C(=O)CNC(=O)[C@H](CO)NC(=O)[C@H](CCC(N)=O)NC4=O)NC(=O)[C@H](Cc4ccc(O)cc4)NC(=O)[C@H](CC(=O)O)NC(=O)CNC(=O)CNC1=O)NC(=O)[C@H](CCC(N)=O)NC(=O)[C@H](CC(N)=O)NC(=O)CNC(=O)[C@@H]1CCCN1C3=O)C(=O)N[C@@H](CO)C(=O)N[C@@H](CCCCN)C(=O)N[C@@H](Cc1c[nH]c3ccccc13)C(=O)NCC(=O)N[C@@H](Cc1ccc(O)cc1)C(=O)N2` [avenatide aV1] (H-ACSSSSPCPGNQCCSKWGYCGLGGDYCGSGCQSGPCTGA-OH; disulfide 2-14, 8-20, 13-27, 31-36), the IC50 in data set [1] came out at 74 µM; in data set [2] it was 53 µM. The “Peptide retained after trypsin treatment” value with trypsin is greater than 80%. Further, in the data set with carboxypeptidase A, the remaining at 4 h, 200 μM was greater than 80%.
